Assay results reported in PubChem BioAssay (NCI).
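Grown in 96-well plates, cells were treated for 48 hours with each compound at five concentrations. Insufficient inhibition: endpoint recorded as highest concentration tested. The concentration for full growth arrest is given as TGI.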

Assays:
Assay in all cases: DTP human tumour cell line panel, 48 h
SW-620 colon = system: SW-620 colon
UACC-62 melanoma = system: UACC-62 melanoma
EKVX NSCLC = system: EKVX NSCLC
MCF7 breast = system: MCF7 breast
SF-295 CNS = system: SF-295 CNS
MDA-N = system: MDA-N
UACC-257 melanoma = system: UACC-257 melanoma
OVCAR-5 ovarian = system: OVCAR-5 ovarian
UO-31 renal = system: UO-31 renal
OVCAR-4 ovarian = system: OVCAR-4 ovarian
MOLT-4 leukemia = system: MOLT-4 leukemia
HOP-62 NSCLC = system: HOP-62 NSCLC
IGROV1 ovarian = system: IGROV1 ovarian
SN12C renal = system: SN12C renal
CAKI-1 renal = system: CAKI-1 renal
MDA-MB-231 breast = system: MDA-MB-231 breast
SK-MEL-2 melanoma = system: SK-MEL-2 melanoma

Compound	TGI (SW-620 colon) [µM]	TGI (UACC-62 melanoma) [µM]	TGI (EKVX NSCLC) [µM]	TGI (MCF7 breast) [µM]	TGI (SF-295 CNS) [µM]	TGI (MDA-N) [µM]	TGI (UACC-257 melanoma) [µM]	TGI (OVCAR-5 ovarian) [µM]	TGI (UO-31 renal) [µM]	TGI (OVCAR-4 ovarian) [µM]	TGI (MOLT-4 leukemia) [µM]	TGI (HOP-62 NSCLC) [µM]	TGI (IGROV1 ovarian) [µM]	TGI (SN12C renal) [µM]	TGI (CAKI-1 renal) [µM]	TGI (MDA-MB-231 breast) [µM]	TGI (SK-MEL-2 melanoma) [µM]
O=C(/C=C1\N=C(c2ccccc2)N(c2nc3c(Cl)cc(Cl)cc3s2)C1=O)/C=C/c1ccccc1	> 100	> 100	> 100	> 100	> 100	> 100	> 100	> 100	> 100	> 100	> 100	> 100	> 100	> 100	> 100	> 100	> 100
CCCCCCSCC/C(C)=N\OC	> 100	> 100	> 100	> 100	> 100	> 100	> 100	> 100	> 100	> 100	> 100	> 100	> 100	> 100	> 100	> 100	> 100
COc1cc(C(c2cccc3ccccc23)N2C(=O)CCC2C(=O)O)cc(OC)c1OC (configuration not stated)	> 100	> 100	> 100	> 100	> 100	> 100	> 100	> 100	> 100	> 100	> 100	> 100	> 100	> 100	> 100	> 100	> 100
Cc1cc(C)c2c(=O)n(CC(O)CN3CCN(CCOCCO)CC3)sc2n1 (configuration not stated)	> 100	32.7	35.3	34.2	> 100	29.2	24.6	34.8	47.8	34.5	73.5	70.6	> 100	37.1	> 100	37.6	39.9
COC(=O)c1nn2ccc3ccccc3c2c1C(=O)OC	> 100	> 100	> 100	> 100	> 100	> 100	> 100	> 100	> 100	> 100	> 100	> 100	> 100	> 100	> 100	> 100	> 100
O=C(O)C(O)C(O)C(O)C(O)C(=O)O (configuration not stated)	> 100	> 100	> 100	> 100	> 100	> 100	> 100	> 100	> 100	> 100	> 100	> 100	> 100	> 100	> 100	> 100	> 100
